Here are results for one molecule from patent publication EP3843702B1, “IMMEDIATE RELEASE FIXED-DOSE COMBINATION OF MEMANTINE AND DONEPEZIL” (Tecnimede, Sociedade Técnico-Medicinal, SA, priority 2019, dated 2020).

The conditions of this series: in vivo.

Consider `CC12CC3CC(C)(C1)CC(N)(C3)C2` [Memantine 20mg, 3,5-dimethyladamantan-1-amine], for which the “AUC 0→72 Point Estimate [%]” value is listed as 103.89% and the “Cmax Point Estimate [%]” value was 101.40%.
